Reference: article PMC8066331, “Anticancer Activity of Triazolo-Thiadiazole Derivatives and Inhibition of AKT1 and AKT2 Activation” (Pharmaceutics, 2021)
Read-outs that look alike come from different tables or passages of the source.

Assays:
[1] = tested on: PC-3; assay: MTT in vitro antiproliferative assay, PC-3; assay type: cell-based; details: Homo sapiens; for IC (TGI): read-out: TGI
From the text: (§1) The in vitro antiproliferative activities of the novel triazolo[3,4-b]thiadiazole derivatives were estimated in ten well-established human cancer cell lines including three ovarian (SKOV-3, UWB 1.289, and UWB 1.289+BRCA1), five colorectal adenocarcinoma (DLD-1, HT-29, LS174T, LoVo, and SW403), and two prostate cancer cell lines (PC-3 and DU-145). All cancer cell lines were obtained from the American Type Culture Collection (ATCC) and cultivated in different culture media according to the instructions. The required growth mediums were supplemented with 10% fetal bovine serum and 1% streptomycin/penicillin. All cancer cell lines were cultured as monolayers and maintained at 37 °C, 5% CO2 in humidified air.
(§2) Stock solutions of all tested compounds were prepared by dissolving the required amount of substances in the DMSO solvent to reach the desired concentration of 15 mM.
(§3) To evaluate the in vitro antiproliferative activity of the triazolo[3,4-b]thiadiazole derivatives, 3-(4,5-dimethylthiazol-2-yl)-2,5-diphenyltetrazolium bromide (MTT) assay was assessed. According to the protocol, cells were firstly seeded into a 96-well plate at a density of 8 × 10^3 cells and grown for 24 h at 37 °C, 5% CO2 in humidified air. Subsequently, cells were treated with the tested compounds in a specific range of drug concentrations (1–100 μΜ). Following 48 h of drug exposure, the culture media were discarded and replaced with 100 μL of fresh medium. Afterwards, 50 μL of dissolved MTT in phosphate-buffered saline (PBS) solution (5 mg/mL) were added in each well and cells were incubated for 3 h at 37 °C, 5% CO2 in humidified air. Incubation time was followed by MTT discard and the addition of 100 μL of DMSO solvent so that the formazan crystals could be dissolved. The absorbance of the converted dye was immediately measured at a wavelength of 540 nm on an ELISA reader (VersaMax Microplate Reader, Orleans, CA, USA).
(§4) The in vitro anticancer effect of a tested compound on cell viability was determined by three dose–response parameters termed GI50, TGI, and IC50. More specifically, the GI50 value indicates the required concentration of the compound that impels 50% cell growth inhibition, the TGI value corresponds to the concentration that induces 100% cell growth inhibition, and the IC50 value is the concentration that causes 50% cell death. The two parameters GI50 and TGI represent the cytostatic activity, whereas IC50 reflects the cytotoxic effect of a drug. To estimate the three parameters, nine absorbance measurements were required including control 24 h (Ct24), control 72 h (Ct72), and the mean of cell survival in all seven drug concentrations (Tt72). The percentage growth inhibition was calculated according to National Cancer Institute’s (NCI) protocol: [(Tt72x) − (Ct24)/(Ct72) − (Ct24)] × 100 for concentrations for which Tt72x > Ct24 and [(Tt72x) − (Ct24)/Ct24] × 100 for concentrations for which Tt72x < Ct24. GI50 was calculated from [(Tt72x) − (Ct24)/(Ct72) − (Ct24)] × 100 = 50, TGI was calculated from [(Tt72x) − (Ct24)/(Ct72) − (Ct24)] × 100 = 0, and IC50 was calculated from [(Tt72x) − (Ct24)/Ct24] × 100 = 50. All the experiments were carried out in triplicate.

[2] = tested on: SKOV-3; assay: MTT in vitro antiproliferative assay, SKOV-3; assay type: cell-based; details: Homo sapiens; for IC (TGI): read-out: TGI
From the text: as §1, §2, §3, §4

[3] = tested on: DLD-1; assay: MTT in vitro antiproliferative assay, DLD-1; assay type: cell-based, human; details: DLD-1, MTT
From the text: as §1, §2, §3, §4

[4] = tested on: DU-145; assay: MTT in vitro antiproliferative assay, DU-145; assay type: cell-based, human
From the text: as §1, §2, §3, §4

[5] = tested on: HT-29; assay: MTT in vitro antiproliferative assay, HT-29; assay type: cell-based, human
From the text: as §1, §2, §3, §4

[6] = PC-3, MTT, 48 h, 50% cell death, read-out: IC50
[7] = PC-3, MTT, 48 h drug exposure, read-out: GI50
[8] = SK-OV-3, SKOV-3, MTT, 48 h, concentration causing 50% cell death, read-out: IC50
[9] = SK-OV-3, SKOV-3, MTT, 48 h drug exposure, read-out: GI50
[10] = SK-OV-3, SKOV-3, MTT, 48 h drug exposure

Structure (SMILES)	IC50 [1, 6] [µM]	GI50 [1, 7] [µM]	IC (TGI) ([1]; PC-3, MTT, 48 h drug exposure) [µM]	IC50 [2, 8] [µM]	GI50 [2, 9] [µM]	IC (TGI) [2, 10] [µM]	also measured
CCN(CC)S(=O)(=O)c1cc(OC)c(OC)cc1Cc1nnc2sc(-c3cccc(Cl)c3)nn12 [Compound 6a, 2-((6-(3-chlorophenyl)-[1,2,4]triazolo[3,4-b][1,3,4]thiadiazol-3-yl)methyl)-N,N-diethyl-4,5-dimethoxybenzenesulfonamide]	> 100	25 ± 1.4	112 ± 2.5	> 100	6 ± 0.3	14 ± 2.5	–
CCN(CC)S(=O)(=O)c1cc(OC)c(OC)cc1Cc1nnc2sc(-c3ccc(Cl)cc3)nn12 [Compound 6b, 2-((6-(4-chlorophenyl)-[1,2,4]triazolo[3,4-b][1,3,4]thiadiazol-3-yl)methyl)-N,N-diethyl-4,5-dimethoxybenzenesulfonamide]	104 ± 0.8	32 ± 0.4	56 ± 0.6	> 100	36 ± 0.1	60 ± 0.8	–
CCN(CC)S(=O)(=O)c1cc(OC)c(OC)cc1Cc1nnc2sc(-c3ccc(F)cc3)nn12 [Compound 6c, N,N-diethyl-2-((6-(4-fluorophenyl)-[1,2,4]triazolo[3,4-b][1,3,4]thiadiazol-3-yl)methyl)-4,5-dimethoxybenzenesulfonamide]	> 100	90 ± 2	> 100	> 100	> 100	> 100	–
CCN(CC)S(=O)(=O)c1cc(OC)c(OC)cc1Cc1nnc2sc(-c3ccc([N+](=O)[O-])cc3)nn12 [Compound 6d, N,N-diethyl-4,5-dimethoxy-2-((6-(4-nitrophenyl)-[1,2,4]triazolo[3,4-b][1,3,4]thiadiazol-3-yl)methyl)benzenesulfonamide]	> 100	50 ± 0.5	> 100	> 100	80 ± 0.5	> 100	–
CCN(CC)S(=O)(=O)c1cc(OC)c(OC)cc1Cc1nnc2sc(-c3cc([N+](=O)[O-])ccc3[N+](=O)[O-])nn12 [Compound 6e, 2-((6-(2,5-dinitrophenyl)-[1,2,4]triazolo[3,4-b][1,3,4]thiadiazol-3-yl)methyl)-N,N-diethyl-4,5-dimethoxybenzenesulfonamide]	–	–	–	–	–	–	GI50 ([1]; PC-3, 48 h): 11 ± 1 µM; IC50 ([1]; PC-3, 48 h): 26.5 ± 0.9 µM; IC (TGI) ([1]; PC-3, 48 h): 17 ± 1 µM; TGI ([3]; 48 h drug exposure): 37 ± 2.0 μΜ; IC50 ([3]; Homo sapiens, 48 h, 50% cell death): 53.6 ± 1.05 µM; GI50 ([3]; Homo sapiens, 48 h drug exposure): 25 ± 2 µM; TGI ([4]; DU-145, MTT, 48 h drug exposure): 18.3 ± 0.2 μΜ; GI50 ([4]; Homo sapiens, DU-145, 48 h): 13 ± 0.5 µM; IC50 ([4]; Homo sapiens, DU-145, 48 h): 28 ± 0.2 µM; GI50 ([2]; SK-OV-3, 48 h): 18 ± 0.7 µM; IC50 ([2]; SK-OV-3, 48 h): 38 ± 1.8 µM; IC (TGI) ([2]; SK-OV-3, 48 h): 24 ± 1.2 µM; TGI ([5]; HT-29, MTT, 48 h drug exposure): 29 ± 0.5 μΜ; GI50 ([5]; Homo sapiens, HT-29, 48 h): 18 ± 1 µM; IC50 ([5]; Homo sapiens, HT-29, 48 h): 44 ± 1 µM
COc1cc(Cc2nnc3sc(-c4cccc(Cl)c4)nn23)c(S(=O)(=O)N(C(C)C)C(C)C)cc1OC [Compound 7a, 2-((6-(3-chlorophenyl)-[1,2,4]triazolo[3,4-b][1,3,4]thiadiazol-3-yl)methyl)-N,N-diisopropyl-4,5-dimethoxybenzenesulfonamide]	> 100	20 ± 0.8	> 100	> 100	16 ± 0.8	46 ± 1.5	–
COc1cc(Cc2nnc3sc(-c4ccc(F)cc4)nn23)c(S(=O)(=O)N(C(C)C)C(C)C)cc1OC [Compound 7b, 2-((6-(4-fluorophenyl)-[1,2,4]triazolo[3,4-b][1,3,4]thiadiazol-3-yl)methyl)-N,N-diisopropyl-4,5-dimethoxybenzenesulfonamide]	> 100	25 ± 0.5	80 ± 1	> 100	80 ± 0.8	> 100	–
COc1cc(Cc2nnc3sc(-c4ccc([N+](=O)[O-])cc4)nn23)c(S(=O)(=O)N(C(C)C)C(C)C)cc1OC [Compound 7c, N,N-diisopropyl-4,5-dimethoxy-2-((6-(4-nitrophenyl)-[1,2,4]triazolo[3,4-b][1,3,4]thiadiazol-3-yl)methyl)benzenesulfonamide]	> 100	23 ± 0.8	102 ± 1.2	66 ± 2.5	15 ± 1.4	28 ± 2.2	–
CCN(CC)S(=O)(=O)c1cc(OC)c(OC)cc1Cc1nnc2sc(/C=C/c3ccc(Cl)cc3)nn12 [Compound 9a, (E)-2-((6-(4-chlorostyryl)-[1,2,4]triazolo[3,4-b][1,3,4]thiadiazol-3-yl)methyl)-N,N-diethyl-4,5-dimethoxybenzenesulfonamide]	> 100	11 ± 1	> 100	> 100	84 ± 2	> 100	–
CCN(CC)S(=O)(=O)c1cc(OC)c(OC)cc1Cc1nnc2sc(/C=C/c3ccc(F)cc3)nn12 [Compound 9b, (E)-N,N-diethyl-2-((6-(4-fluorostyryl)-[1,2,4]triazolo[3,4-b][1,3,4]thiadiazol-3-yl)methyl)-4,5-dimethoxybenzenesulfonamide]	> 100	42 ± 1	> 100	> 100	> 100	> 100	–
CCN(CC)S(=O)(=O)c1cc(OC)c(OC)cc1Cc1nnc2sc(/C=C/c3cccc([N+](=O)[O-])c3)nn12 [Compound 9c, (E)-N,N-diethyl-4,5-dimethoxy-2-((6-(3-nitrostyryl)-[1,2,4]triazolo[3,4-b][1,3,4]thiadiazol-3-yl)methyl)benzenesulfonamide]	> 100	38 ± 2	> 100	> 100	> 100	> 100	–
CCN(CC)S(=O)(=O)c1cc(OC)c(OC)cc1Cc1nnc2sc(/C=C/c3ccc([N+](=O)[O-])cc3)nn12 [Compound 9d, (E)-N,N-diethyl-4,5-dimethoxy-2-((6-(4-nitrostyryl)-[1,2,4]triazolo[3,4-b][1,3,4]thiadiazol-3-yl)methyl)benzenesulfonamide]	> 100	30 ± 0.5	> 100	> 100	> 100	> 100	–
COc1cc(Cc2nnc3sc(/C=C/c4ccc(Cl)cc4)nn23)c(S(=O)(=O)N(C(C)C)C(C)C)cc1OC [Compound 10a, (E)-2-((6-(4-chlorostyryl)-[1,2,4]triazolo[3,4-b][1,3,4]thiadiazol-3-yl)methyl)-N,N-diisopro-pyl-4,5-dimethoxybenzenesulfonamide]	> 100	2 ± 0.5	84 ± 2	> 100	76 ± 6	> 100	–
COc1cc(Cc2nnc3sc(/C=C/c4ccc(F)cc4)nn23)c(S(=O)(=O)N(C(C)C)C(C)C)cc1OC [Compound 10b, (E)-2-((6-(4-fluorostyryl)-[1,2,4]triazolo[3,4-b][1,3,4]thiadiazol-3-yl)methyl)-N,N-diisopro-pyl-4,5-dimethoxybenzenesulfonamide]	> 100	31 ± 1.1	> 100	> 100	50 ± 2	> 100	–
